{"source": "BindingDB's records for PubMed 38701715", "about": "(Shaanxi University of Chinese Medicine)", "assay": "Inhibition of ACAT2 (unknown origin)"}
{"smiles": "COc1ccc([C@@H]2O[C@H](c3ccc(OC(C)C(O)c4ccc5c(c4)COC5)c(OC)c3)[C@H](C)[C@@H]2C)cc1OC", "note": "(stereo partly specified)", "values": [{"measurement": "IC50", "result": 124, "unit": "µM"}]}
